From patent US20160038468A1 (priority 2013, published 2016)
≈ marks a conversion by molar mass, not a printed value. Like-named read-outs stand apart in the source and are kept apart here.

Experiments:
Format in all cases: cell-based
Settings in all cases: for MIC: read-out: Minimal Inhibitory Concentration (MIC)
[1] = test system: Prevotella bivia; experiment: Agar dilution MIC (CLSI), Prevotella bivia vaginal isolates
[2] = test system: Anaerococcus tetradius; experiment: Agar dilution MIC (CLSI), Anaerococcus tetradius vaginal isolates
[3] = test system: Megasphaera-like bacteria; experiment: Agar dilution MIC (CLSI), Megasphaera-like bacteria vaginal isolates
[4] = Anaerococcus tetradius, # tested 21

## Cc1ncc([N+](=O)[O-])n1CCO [Metronidazole]
[1]; Prevotella bivia, isolate 601367 M
  MIC: 8 µg/mL (≈ 46.7 µM)
[1]; Prevotella bivia, isolate 601374 A1
  MIC: 16 µg/mL (≈ 93.5 µM)
[1]; Prevotella bivia, isolate 601378 B
  MIC: 16 µg/mL (≈ 93.5 µM)
[1]; Prevotella bivia, isolate 601379 19
  MIC: 16 µg/mL (≈ 93.5 µM)
[1]; Prevotella bivia, isolate 601388 T
  MIC: 4 µg/mL (≈ 23.4 µM)
[1]; Prevotella bivia, isolate 601389 10
  MIC: 4 µg/mL (≈ 23.4 µM)
[1]; Prevotella bivia, isolate 601389 J
  MIC: 4 µg/mL (≈ 23.4 µM)
[1]; Prevotella bivia, isolate 601392 14
  MIC: 4 µg/mL (≈ 23.4 µM)
[1]; Prevotella bivia, isolate 601409 V
  MIC: 4 µg/mL (≈ 23.4 µM)
[1]; Prevotella bivia, isolate 601410 12
  MIC: 4 µg/mL (≈ 23.4 µM)
[1]; Prevotella bivia, isolate 601429 1
  MIC: 8 µg/mL (≈ 46.7 µM)
[1]; Prevotella bivia, isolate 601433 19
  MIC: 8 µg/mL (≈ 46.7 µM)
[1]; Prevotella bivia, isolate 601449 E
  MIC: 16 µg/mL (≈ 93.5 µM)
[1]; Prevotella bivia, isolate 601453 A
  MIC: 8 µg/mL (≈ 46.7 µM)
[1]; Prevotella bivia, isolate 601455 D1
  MIC: 16 µg/mL (≈ 93.5 µM)
[1]; Prevotella bivia, isolate 601458 16
  MIC: 16 µg/mL (≈ 93.5 µM)
[1]; Prevotella bivia, # tested 34
  MIC50: 8 µg/mL (≈ 46.7 µM)
  MIC90: 16 µg/mL (≈ 93.5 µM)
[1]; number (%) of isolates, # tested 34
  Susceptible: 21 (62) μg/ml
[2]; Anaerococcus tetradius, isolate 601103V 21
  MIC: 1 µg/mL (≈ 5.84 µM)
[2]; Anaerococcus tetradius, isolate 601175V I
  MIC: 1 µg/mL (≈ 5.84 µM)
[2]; Anaerococcus tetradius, isolate 601202V 11
  MIC: 1 µg/mL (≈ 5.84 µM)
[2]; Anaerococcus tetradius, isolate 601212V 14
  MIC: 1 µg/mL (≈ 5.84 µM)
[2]; Anaerococcus tetradius, isolate 601221V 12
  MIC: 128 µg/mL (≈ 748 µM)
[2]; Anaerococcus tetradius, isolate 601242V 17
  MIC: 1 µg/mL (≈ 5.84 µM)
[2]; Anaerococcus tetradius, isolate 601256V 9
  MIC: 1 µg/mL (≈ 5.84 µM)
[2]; Anaerococcus tetradius, isolate 601287V V
  MIC: 1 µg/mL (≈ 5.84 µM)
[2]; Anaerococcus tetradius, isolate 601305V J
  MIC: 1 µg/mL (≈ 5.84 µM)
[2]; Anaerococcus tetradius, isolate 601326V H
  MIC: 1 µg/mL (≈ 5.84 µM)
[2]; Anaerococcus tetradius, isolate 601340V 25
  MIC: 1 µg/mL (≈ 5.84 µM)
[2]; Anaerococcus tetradius, isolate 601342V N
  MIC: 1 µg/mL (≈ 5.84 µM)
[2]; Anaerococcus tetradius, isolate 601368V 42
  MIC: 1 µg/mL (≈ 5.84 µM)
[2]; Anaerococcus tetradius, isolate 601369V 12
  MIC: 1 µg/mL (≈ 5.84 µM)
[2]; Anaerococcus tetradius, isolate 601379V 25
  MIC: 1 µg/mL (≈ 5.84 µM)
[2]; Anaerococcus tetradius, isolate 601401V T
  MIC: 1 µg/mL (≈ 5.84 µM)
[2]; Anaerococcus tetradius, isolate 601429V 15
  MIC: 1 µg/mL (≈ 5.84 µM)
[2]; Anaerococcus tetradius, isolate 601450V 22
  MIC: 1 µg/mL (≈ 5.84 µM)
[2]; Anaerococcus tetradius, isolate 602375V 22
  MIC: 1 µg/mL (≈ 5.84 µM)
[2]; [4]
  MIC50: 1 µg/mL (≈ 5.84 µM)
  MIC90: 1 µg/mL (≈ 5.84 µM)
[2]; MIC […], 21 samples
  Number of strains with indicated MIC: 1
[3]; 427510 h, isolate 427507 H
  MIC: 0.25 µg/mL (≈ 1.46 µM)
[3]; # tested 25
  MIC50: 0.25 µg/mL (≈ 1.46 µM)
  MIC90: 0.25 µg/mL (≈ 1.46 µM)
[3]; isolate 426749 T
  MIC: 0.25 µg/mL (≈ 1.46 µM)
[3]; isolate 426766 Q
  MIC: 0.25 µg/mL (≈ 1.46 µM)
[3]; isolate 426788 8a
  MIC: 0.25 µg/mL (≈ 1.46 µM)
[3]; isolate 426788 C
  MIC: 0.25 µg/mL (≈ 1.46 µM)
[3]; isolate 427522 8
  MIC: 0.25 µg/mL (≈ 1.46 µM)
[3]; isolate 600770 O
  MIC: 0.25 µg/mL (≈ 1.46 µM)
[3]; isolate 600790 N
  MIC: 0.25 µg/mL (≈ 1.46 µM)
[3]; isolate 600831 9
  MIC: 0.25 µg/mL (≈ 1.46 µM)
[3]; isolate 600837 18
  MIC: 0.25 µg/mL (≈ 1.46 µM)
[3]; isolate 600861 P
  MIC: 0.25 µg/mL (≈ 1.46 µM)
[3]; isolate 602236 E3
  MIC: 50.2 µg/mL (≈ 294 µM)
[3]; isolate 602241 D
  MIC: 0.25 µg/mL (≈ 1.46 µM)
[3]; isolate 602241 F
  MIC: 0.25 µg/mL (≈ 1.46 µM)
[3]; isolate 602270 A
  MIC: 0.25 µg/mL (≈ 1.46 µM)
[3]; isolate 602282 I
  MIC: 0.25 µg/mL (≈ 1.46 µM)
[3]; isolate 602302 22
  MIC: 0.25 µg/mL (≈ 1.46 µM)
[3]; isolate 602305 I
  MIC: 0.25 µg/mL (≈ 1.46 µM)
[3]; isolate 602324 8
  MIC: 0.25 µg/mL (≈ 1.46 µM)
[3]; isolate 602672 12A
  MIC: 0.25 µg/mL (≈ 1.46 µM)
